Measurements taken from ChEMBL document CHEMBL4390652, “Design, biological evaluation and X-ray crystallography of nanomolar multifunctional ligands targeting simultaneously acetylcholinesterase and glycogen synthase kinase-3” (Eur J Med Chem, 2019).

Key:
Cholinesterase = Cholinesterase (Homo sapiens, UniProt P06276); experiment: Inhibition of human serum BChE using BTCh as substrate preincubated for 20 mins followed by substrate addition and measured for 3 mins by Ellman's method
[1] = target: Tyrosine-protein kinase ABL2 (Homo sapiens) (UniProt P42684); experiment: Binding affinity to wild-type human ABL2 (A248 to G542 residues) expressed in bacterial expression system assessed as residual binding level at 10 uM by Kinomescan method relative to control
[2] = target: Activin receptor type-2A (Homo sapiens) (UniProt P27037); experiment: Binding affinity to wild-type human ACVR2A (V171 to T499 residues) expressed in bacterial expression system assessed as residual binding level at 10 uM by Kinomescan method relative to control
[3] = target: Mitogen-activated protein kinase kinase kinase 5 (Homo sapiens) (UniProt Q99683); experiment: Binding affinity to wild-type human partial length ASK1 (E648 to S964 residues) expressed in bacterial expression system assessed as residual binding level at 10 uM by Kinomescan method relative to control
[4] = target: Calcium/calmodulin-dependent protein kinase kinase 2 (Homo sapiens) (UniProt Q96RR4); experiment: Binding affinity to wild-type human partial length CAMKK2 (D65 to V471 residues) expressed in bacterial expression system assessed as residual binding level at 10 uM by Kinomescan method relative to control
[5] = tested on: Epidermal growth factor receptor (Homo sapiens), P00533 [T790M]; experiment: Binding affinity to human partial length EGFR T790M mutant (R669 to G1022 residues) expressed in mammalian expression system assessed as residual binding level at 10 uM by Kinomescan method relative to control
[6] = target: Ephrin type-A receptor 3 (Homo sapiens) (UniProt P29320); experiment: Binding affinity to wild-type human partial length EPHA3 (D604 to K889 residues) expressed in bacterial expression system assessed as residual binding level at 10 uM by Kinomescan method relative to control
[7] = target: G protein-coupled receptor kinase 4 (Homo sapiens) (UniProt P32298); experiment: Binding affinity to wild-type human full length GRK4 (M1 to C578 residues) expressed in bacterial expression system assessed as residual binding level at 10 uM by Kinomescan method relative to control
[8] = target: Interleukin-1 receptor-associated kinase 4 (Homo sapiens) (UniProt Q9NWZ3); experiment: Binding affinity to wild-type human partial length IRAK4 (M1 to S460 residues) expressed in mammalian expression system assessed as residual binding level at 10 uM by Kinomescan method relative to control
[9] = target: Dual specificity mitogen-activated protein kinase kinase 3 (Homo sapiens) (UniProt P46734); experiment: Binding affinity to wild-type human full length MEK3 (M1 to S318 residues) expressed in mammalian expression system assessed as residual binding level at 10 uM by Kinomescan method relative to control
[10] = target: Mitogen-activated protein kinase kinase kinase 9 (Homo sapiens) (UniProt P80192); experiment: Binding affinity to wild-type human partial length MLK1 (V88 to W426 residues) expressed in bacterial expression system assessed as residual binding level at 10 uM by Kinomescan method relative to control
[11] = target: Serine/threonine-protein kinase SIK3 (Homo sapiens) (UniProt Q9Y2K2); experiment: Binding affinity to wild-type human partial length QSK (A90 to L395 residues) expressed in mammalian expression system assessed as residual binding level at 10 uM by Kinomescan method relative to control
[12] = target: Proto-oncogene tyrosine-protein kinase receptor Ret (Homo sapiens) (UniProt P07949); experiment: Binding affinity to wild-type human partial length RET (E713 to D1014 residues) expressed in bacterial expression system assessed as residual binding level at 10 uM by Kinomescan method relative to control
[13] = tested on: Proto-oncogene tyrosine-protein kinase receptor Ret (Homo sapiens), P07949 [M918T]; experiment: Binding affinity to human partial length RET M918T mutant (E713 to D1014 residues) expressed in bacterial expression system assessed as residual binding level at 10 uM by Kinomescan method relative to control
[14] = target: Ribosomal protein S6 kinase alpha-3 (Homo sapiens) (UniProt P51812); experiment: Binding affinity to wild-type human partial length C-terminal RSK2 kinase domain 2 (V402 to S715 residues) expressed in mammalian expression system assessed as residual binding level at 10 uM by Kinomescan method relative to control
[15] = target: Angiopoietin-1 receptor (Homo sapiens) (UniProt Q02763); experiment: Binding affinity to wild-type human partial length TIE2 (N804 to T1112 residues) expressed in bacterial expression system assessed as residual binding level at 10 uM by Kinomescan method relative to control

Proto-oncogene tyrosine-protein kinase receptor Ret (Homo sapiens), P07949 [M918T], sequence (P07949 whole entry M918T, the tested form may be a part): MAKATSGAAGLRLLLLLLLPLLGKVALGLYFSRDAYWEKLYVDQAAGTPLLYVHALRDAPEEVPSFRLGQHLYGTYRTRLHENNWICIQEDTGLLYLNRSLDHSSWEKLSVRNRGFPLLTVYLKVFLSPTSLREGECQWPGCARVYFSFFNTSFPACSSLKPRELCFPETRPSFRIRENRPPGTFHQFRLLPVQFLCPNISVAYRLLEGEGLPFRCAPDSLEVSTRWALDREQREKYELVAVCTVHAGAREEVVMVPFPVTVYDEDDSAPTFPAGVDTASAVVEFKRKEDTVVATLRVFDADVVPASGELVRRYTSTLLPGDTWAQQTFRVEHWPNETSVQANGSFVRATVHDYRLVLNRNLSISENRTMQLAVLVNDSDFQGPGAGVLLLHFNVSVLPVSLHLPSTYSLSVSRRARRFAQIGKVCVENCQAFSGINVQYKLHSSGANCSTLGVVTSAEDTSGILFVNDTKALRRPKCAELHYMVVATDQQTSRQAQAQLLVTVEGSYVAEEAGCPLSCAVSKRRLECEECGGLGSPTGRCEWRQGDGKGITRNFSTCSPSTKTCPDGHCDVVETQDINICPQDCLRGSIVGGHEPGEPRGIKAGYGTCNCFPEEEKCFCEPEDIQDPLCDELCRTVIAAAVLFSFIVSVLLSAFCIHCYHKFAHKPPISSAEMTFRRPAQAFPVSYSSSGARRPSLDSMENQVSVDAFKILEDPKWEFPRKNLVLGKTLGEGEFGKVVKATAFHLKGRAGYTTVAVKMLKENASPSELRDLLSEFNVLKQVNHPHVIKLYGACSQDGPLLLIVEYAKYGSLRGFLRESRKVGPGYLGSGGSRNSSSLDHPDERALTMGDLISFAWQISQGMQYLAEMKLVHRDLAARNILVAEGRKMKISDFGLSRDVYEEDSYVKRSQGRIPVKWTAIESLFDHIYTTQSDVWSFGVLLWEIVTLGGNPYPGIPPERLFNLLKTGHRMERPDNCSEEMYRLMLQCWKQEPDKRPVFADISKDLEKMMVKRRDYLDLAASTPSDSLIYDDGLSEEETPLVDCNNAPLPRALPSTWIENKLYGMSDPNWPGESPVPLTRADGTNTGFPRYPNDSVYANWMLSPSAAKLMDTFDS
Interleukin-1 receptor-associated kinase 4 (Homo sapiens), sequence (Q9NWZ3 whole entry, the tested form may be a part): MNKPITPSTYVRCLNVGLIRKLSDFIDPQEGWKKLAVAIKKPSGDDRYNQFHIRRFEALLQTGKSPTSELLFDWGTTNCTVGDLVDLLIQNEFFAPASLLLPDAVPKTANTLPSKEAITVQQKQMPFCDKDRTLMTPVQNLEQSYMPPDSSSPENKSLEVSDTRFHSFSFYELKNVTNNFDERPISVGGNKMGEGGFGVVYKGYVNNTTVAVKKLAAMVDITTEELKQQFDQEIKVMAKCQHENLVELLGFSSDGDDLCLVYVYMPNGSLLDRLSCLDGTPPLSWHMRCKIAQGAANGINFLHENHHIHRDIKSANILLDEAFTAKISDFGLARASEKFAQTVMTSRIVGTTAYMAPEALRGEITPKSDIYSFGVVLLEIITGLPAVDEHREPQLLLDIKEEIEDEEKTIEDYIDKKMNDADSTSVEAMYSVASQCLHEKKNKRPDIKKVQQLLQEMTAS
Mitogen-activated protein kinase kinase kinase 5 (Homo sapiens), sequence (Q99683 whole entry, the tested form may be a part): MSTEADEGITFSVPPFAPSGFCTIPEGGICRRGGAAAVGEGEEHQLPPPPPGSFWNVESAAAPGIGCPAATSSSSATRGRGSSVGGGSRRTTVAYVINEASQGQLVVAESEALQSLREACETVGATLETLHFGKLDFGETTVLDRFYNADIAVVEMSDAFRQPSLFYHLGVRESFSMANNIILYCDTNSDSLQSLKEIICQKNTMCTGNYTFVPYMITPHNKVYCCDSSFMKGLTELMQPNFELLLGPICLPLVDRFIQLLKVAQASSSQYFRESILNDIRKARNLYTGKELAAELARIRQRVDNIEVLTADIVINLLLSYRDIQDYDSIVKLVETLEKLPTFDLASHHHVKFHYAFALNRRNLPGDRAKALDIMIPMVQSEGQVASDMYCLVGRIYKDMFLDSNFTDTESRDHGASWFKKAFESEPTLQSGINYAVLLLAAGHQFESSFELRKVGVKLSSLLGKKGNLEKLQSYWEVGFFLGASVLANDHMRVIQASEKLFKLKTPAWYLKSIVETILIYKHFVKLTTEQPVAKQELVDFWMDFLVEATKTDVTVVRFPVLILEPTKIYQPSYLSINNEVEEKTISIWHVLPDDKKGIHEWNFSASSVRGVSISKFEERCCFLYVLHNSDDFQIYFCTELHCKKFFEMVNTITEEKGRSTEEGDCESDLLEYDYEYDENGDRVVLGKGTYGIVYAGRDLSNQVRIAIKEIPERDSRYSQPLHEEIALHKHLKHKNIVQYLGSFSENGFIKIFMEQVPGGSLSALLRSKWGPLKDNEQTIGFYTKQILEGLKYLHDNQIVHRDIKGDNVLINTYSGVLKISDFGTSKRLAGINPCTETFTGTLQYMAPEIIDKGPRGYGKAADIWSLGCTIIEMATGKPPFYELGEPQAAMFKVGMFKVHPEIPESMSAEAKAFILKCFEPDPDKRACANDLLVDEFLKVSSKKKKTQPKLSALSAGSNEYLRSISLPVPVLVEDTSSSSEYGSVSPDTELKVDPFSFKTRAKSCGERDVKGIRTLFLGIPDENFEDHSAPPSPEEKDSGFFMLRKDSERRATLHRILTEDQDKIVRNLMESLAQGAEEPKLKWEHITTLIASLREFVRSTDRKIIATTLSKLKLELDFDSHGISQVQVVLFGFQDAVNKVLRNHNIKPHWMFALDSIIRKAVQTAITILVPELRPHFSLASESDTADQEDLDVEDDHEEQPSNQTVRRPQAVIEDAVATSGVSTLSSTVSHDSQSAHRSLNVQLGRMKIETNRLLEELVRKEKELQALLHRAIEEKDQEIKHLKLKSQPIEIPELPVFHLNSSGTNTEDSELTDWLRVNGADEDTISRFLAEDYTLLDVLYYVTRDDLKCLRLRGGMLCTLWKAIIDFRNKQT
Proto-oncogene tyrosine-protein kinase receptor Ret (Homo sapiens), sequence (P07949 whole entry, the tested form may be a part): as the sequence (P07949 whole entry M918T, the tested form may be a part) above, with T918M counted along it
Calcium/calmodulin-dependent protein kinase kinase 2 (Homo sapiens), sequence (Q96RR4 2-588 limits assumed): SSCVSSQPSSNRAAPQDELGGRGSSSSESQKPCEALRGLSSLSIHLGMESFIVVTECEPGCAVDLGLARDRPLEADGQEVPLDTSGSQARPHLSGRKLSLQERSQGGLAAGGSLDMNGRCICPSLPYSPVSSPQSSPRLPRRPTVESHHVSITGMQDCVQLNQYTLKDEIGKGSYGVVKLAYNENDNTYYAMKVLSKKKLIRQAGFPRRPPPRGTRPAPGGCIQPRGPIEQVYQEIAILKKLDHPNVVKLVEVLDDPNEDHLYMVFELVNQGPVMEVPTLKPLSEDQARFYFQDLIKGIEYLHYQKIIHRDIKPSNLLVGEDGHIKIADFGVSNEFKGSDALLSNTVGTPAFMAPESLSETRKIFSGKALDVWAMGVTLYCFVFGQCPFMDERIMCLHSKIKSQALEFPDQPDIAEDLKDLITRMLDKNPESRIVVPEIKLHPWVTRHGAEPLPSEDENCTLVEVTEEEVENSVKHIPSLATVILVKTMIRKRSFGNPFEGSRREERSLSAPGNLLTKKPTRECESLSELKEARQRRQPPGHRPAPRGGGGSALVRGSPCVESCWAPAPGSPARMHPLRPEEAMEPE
Dual specificity mitogen-activated protein kinase kinase 3 (Homo sapiens), sequence (P46734 whole entry, the tested form may be a part): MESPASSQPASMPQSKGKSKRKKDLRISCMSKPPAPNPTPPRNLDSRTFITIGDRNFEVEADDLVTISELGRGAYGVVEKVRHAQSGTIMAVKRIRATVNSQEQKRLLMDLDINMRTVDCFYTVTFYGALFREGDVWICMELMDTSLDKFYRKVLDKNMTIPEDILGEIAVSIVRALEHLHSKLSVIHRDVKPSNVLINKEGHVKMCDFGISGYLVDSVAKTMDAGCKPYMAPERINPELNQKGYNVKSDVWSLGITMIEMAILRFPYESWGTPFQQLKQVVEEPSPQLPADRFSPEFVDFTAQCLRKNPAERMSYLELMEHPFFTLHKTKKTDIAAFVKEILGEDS

O=C(Nc1cc(-c2cn(CCNc3c4c(nc5ccccc35)CCCC4)nn2)ccn1)Nc1cccc2c1C1CCCCN1C2=O (racemic) showed an IC50 (Cholinesterase) of 301 nM, an Activity [1] of 22% and an Activity [2] of 100%. For the same compound, the Activity [3] was 80%, the Activity [4] was 18% and the Activity [5] was 70%. For the same compound, the Activity [6] was 77%, the Activity [7] was 7% and the Activity [8] was 93%. The Activity [9] was 70%, the Activity [10] was 38% and the Activity [11] was 23%. The Activity [12] was 39%, the Activity [13] was 42% and the Activity [14] was 100%. For the same compound, the Activity [15] was 77%.
